Source: patent US20210196714A1, “COMPOSITIONS AND METHODS FOR TREATING DISORDERS CHARACTERIZED WITH ABERRANT RAS/MAPK SIGNALING” (Duke University, priority 2018, published 2021)

Key:
[1] = test system: zebrafish kmt2d morphants; test: Rescue of convergent-extension (CE) phenotype in kmt2d morphants; type: in vivo
[2] = test system: morphant KS embryos; conditions: Bogershausen et al. 2015; cited from earlier work

SMILES	amelioration of CE defects over serial dilutions ([1]; 1 nM to 1 μM, 8-10 somite stage)	CE defects at 50 nM and 100 nM doses ([1]; dose response, 50 and 100 nM)	rescue of CE-driven phenotypes [2]
CC(C)(C)c1nc(-c2cccc(NS(=O)(=O)c3c(F)cccc3F)c2F)c(-c2ccnc(N)n2)s1 [Dabrafenib, reference compound]	did not result in significant amelioration	marginal improvements	
O=C(NOCC1CC1)c1cc(Br)c(F)c(F)c1Nc1ccc(I)cc1Cl [PD184161]			phenocopy this rescue
